# Measured values published in US9556217B2, “Amphiphilic compounds” (WISCONSIN ALUMNI RESEARCH FOUNDATION, priority 2012, dated 2017).
# Where two headings read alike, the source gives them in different places.
# How the values were obtained:
# [1] = test system: δ-opioid receptor-T4L fusion (δOR-T4L); experiment: δOR-T4L activity after solubilization ([3H]-diprenorphine binding); type: biochemical; conditions: extracted with 1.0 wt % of amphiphile
# Text: We turned to a δ-opioid receptor-T4L fusion (δOR-T4L), another GPCR, to compare GDN with the recently reported amphiphile MNG-3 (P. S. Chae, et al., Nat. Methods 2010, 7, 1003-1008), which has proven to be essential for crystallization of several other GPCR constructs (Rasmussen, et al., Nature 2011, 469, 236-240; Rosenbaum, et al., Nature 2011, 469, 175-180; Rasmussen, et al., Nature 2011, 477, 540-541; Kruse, et al., Nature 2012, 482, 552-556; Haga, et al., Nature 2012, 482, 547-551). […] The ability of the new amphiphiles to stabilize membrane proteins thus allows for the ability to perform analyses and structural studies that could not be performed with other detergents such as DDM because harsher detergents (e.g., DDM) can remove important lipid moieties from the proteins, causing them to denature and rapidly loose activity.
# FLAG epitope tagged δOR-T4L was expressed in Sf9 insect cells using baculovirus particles generated by the pFastBac vector system (Invitrogen). Insect cells were infected and cultured as for the β2AR and cells were lysed by osmotic shock as done for cells expressing β2AR. Lysed cells were used for extraction tests by adding 40 mg of cells to 200 μL of solubilization buffer (20 mM HEPES pH 7.5, 100 mM NaCl) containing each amphiphile. […] The amount of functional receptor after solubilization was quantified by incubation for 1 hour with 10 nM 3H diprenorphine. […]
# [2] = stated in the bR protocol; cited from earlier work
# [3] = target: T1, CMP-Sia fusion protein bearing green fluorescent protein (GFP) (Mus musculus, UniProt Q61420); experiment: CMP-Sia-GFP fusion solubilization (fluorescence); conditions: 1 wt %, 1 hr at 4° C., total fluorescence
# T1 construct: made in house; host or cells: Saccharomyces cerevisiae FGY217
# Experimental: (§1) The favorable MelB extraction performance of GDN led to the examination of this amphiphile for extraction of other IMPs. […] DDM and GDN were used to extract a CMP-Sia fusion protein bearing green fluorescent protein (GFP) at the C-terminus, after expression in Saccharomyces cerevisiae; the amount of solubilized protein was estimated by total fluorescence. GDN (2 wt %), DDM (1 wt %) and OG (1 wt %) gave ˜70%, ˜80% and ˜50% extraction yields, respectively.
# (§2) The procedure was performed according to the protocol reported by Chae and coworkers (Nat. Methods 2010, 7, 1003-1008).
# CMP-Sia was expressed as a fusion protein with a C-terminal GFP in FGY217 Saccharomyces cerevisiae cells. Cell lysis was conducted by using a cell disrupter (Constant Systems) and the protein samples were subjected to centrifugation at 15,000 g for 10 mins to remove unbroken cells and debris. Subsequently, the membranes were harvested by ultracentrifugation at 150,000 g for 45 min. The membranes were resuspended in 50 mM Tris-HCl (pH 7.6), 1 mM EDTA, 0.6 M sorbitol and the protein concentration was estimated using a BCA kit (Pierce). The membranes were incubated with OG or DDM at 1.0%, or GDN at 2.0% for 1 hr at 4° C. A fluorescence value was measured for each sample before and after ultracentrifugation at 150,000 g for 1 h. The solubilization efficiency was calculated via the fluorescence measurements of the soluble supernatant/the total sample.
# β2AR WT = target: T2, β2AR WT (Homo sapiens, UniProt P07550); experiment: Extraction of β2AR WT from insect cell membranes; conditions: 1 wt %; western blotting
# T2 construct: made in house; host or cells: Sf9 insect cells (baculovirus); lysed cells and membranes extracted directly with amphiphile
# T2 sequence (P07550 whole entry): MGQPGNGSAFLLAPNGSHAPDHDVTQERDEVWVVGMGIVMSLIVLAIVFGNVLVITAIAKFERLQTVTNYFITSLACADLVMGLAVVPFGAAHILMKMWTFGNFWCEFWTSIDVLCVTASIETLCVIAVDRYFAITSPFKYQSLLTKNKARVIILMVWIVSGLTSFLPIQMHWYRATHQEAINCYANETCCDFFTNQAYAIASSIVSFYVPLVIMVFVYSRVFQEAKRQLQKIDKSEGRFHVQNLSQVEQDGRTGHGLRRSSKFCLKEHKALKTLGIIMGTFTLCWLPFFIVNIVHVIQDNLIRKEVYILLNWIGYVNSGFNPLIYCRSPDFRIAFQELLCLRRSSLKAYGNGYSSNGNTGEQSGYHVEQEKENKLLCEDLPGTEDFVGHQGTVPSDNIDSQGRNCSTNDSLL
# Experimental: as §1, §2
# A gene encoding amino-terminally FLAG epitope tagged β2AR was expressed in Sf9 cells by baculovirus, with no ligand present during culture. Cells were infected at a density of 4×10^6 cells/mL and then cultured for 48 hours prior to harvesting by centrifugation. Cells were resuspended and lysed by osmotic shock with a low ionic strength buffer (20 mM Tris pH 7.5, 1 mM EDTA). The lysed cells were aliquoted 35 mg per aliquot, then frozen. For extraction tests, 300 μL of solubilization buffer (20 mM HEPES pH 7.5, 100 mM NaCl) containing each amphiphile was added to each aliquot, which was then homogenized by pipet followed by grinding with a glass dounce tissue homogenizer. After two-hour incubation at 4° C., samples were centrifuged at maximum speed in a tabletop microcentrifuge to pellet insoluble material. […]
# [4] = Critical micelle concentration (fluorescent dye solubilization); type: physicochemical
# Text: The “Critical Micelle Concentration” (CMC) refers to the concentration of a detergent (e.g., an amphiphile as described herein) in an aqueous solution at which the detergent molecules self-assemble into micelles. Below the CMC, detergents are mostly monomeric; above the CMC, micelle concentration increases linearly with detergent concentration. The CMC is dependent upon many factors and is detergent-specific. The CMC of a detergent can be determined experimentally by measuring the solubilization of a water-insoluble dye or fluorophore while varying the concentration of detergent. A CMC may also be determined by measuring the diminution of the surface tension of an aqueous solution as a function of detergent concentration (CMCs determined by either method correlate with each other). The CMC is determined by extrapolating the plot of solubilization vs. concentration (or surface tension vs. concentration) in the two linear regions above and below the CMC. Where the two lines intersect is the CMC. The CMC can also be determined by the method of Nugebauer, J. M. (1990), Methods in Enzymology, 182:239-253.
# The four compounds were readily prepared on a multi-gram scale (see Examples 1 and 2 below, and FIGS. 13-15), as is necessary if they are to serve as research tools. All four are highly soluble in aqueous solution (>20 wt %) and have relatively low critical micelle concentrations (CMC; determined by fluorescent dye solubilization).
# [5] = Hydrodynamic radius of micelles by dynamic light scattering; type: physicochemical; conditions: Mean ± SD, n = 5
# Text: These values are somewhat smaller than the CMC of DDM, which indicates a strong tendency of the new agents to self-assemble, and which can be advantageous for IMP handling because detrimental levels of non-micellar amphiphile can be avoided. Table 1 provides the hydrodynamic radius (Rh) of the micelles formed by each amphiphile, as determined by dynamic light scattering (DLS). The micelles formed by GLC amphiphiles are slightly smaller than those formed by DDM, while the micelles formed by GDN are slightly larger.
# wild type β2AR (β2AR WT) = target: T3, wild type β2AR (β2AR WT) (Homo sapiens, UniProt P07550); experiment: β2AR WT activity after extraction ([3H]-dihydroalprenolol binding); type: biochemical
# T3 construct: made in house; host or cells: Sf9 insect cells (baculovirus); lysed cells and membranes extracted directly with amphiphile
# T3 sequence (P07550 whole entry): as above
# Experimental: In the examples discussed above, conventional detergents such as DDM were used to extract IMPs from the membrane, and then in most cases the solution of detergent-solubilized protein was diluted with amphiphile-containing solutions to evaluate the new agents. With this approach it is possible that the small amount of residual conventional detergent could affect protein stability. To exclude this possibility, GLC-3 and GDN were used to extract wild type β2AR (β2AR WT) (Kobilka, Trends in Pharmacological Sciences 2011, 32, 213-218) from the membrane. Receptor activity was measured via a binding assay involving the antagonist [^3H]-dihydroalprenolol. […] GDN is therefore highly suitable for GPCR extraction.
# A gene encoding amino-terminally FLAG epitope tagged β2AR was expressed in Sf9 cells by baculovirus, with no ligand present during culture. Cells were infected at a density of 4×10^6 cells/mL and then cultured for 48 hours prior to harvesting by centrifugation. Cells were resuspended and lysed by osmotic shock with a low ionic strength buffer (20 mM Tris pH 7.5, 1 mM EDTA). The lysed cells were aliquoted 35 mg per aliquot, then frozen. For extraction tests, 300 μL of solubilization buffer (20 mM HEPES pH 7.5, 100 mM NaCl) containing each amphiphile was added to each aliquot, which was then homogenized by pipet followed by grinding with a glass dounce tissue homogenizer. After two-hour incubation at 4° C., samples were centrifuged at maximum speed in a tabletop microcentrifuge to pellet insoluble material. Supernatant was removed and assayed for protein concentration by DC protein assay (Bio-Rad).
# The amount of functional receptor was quantified by incubation for 1 hour with 10 nM 3H dihydroalprenolol. Samples were then separated by gel filtration over G-50 resin and radioactivity was quantified by liquid scintillation. Nonspecific binding was measured in the presence of 10 μM alprenolol. Assays were performed in triplicate at time points indicated. G-50 filtration was performed in buffer containing 20 mM HEPES pH 7.5, 100 mM NaCl, 10-fold CMC of the detergent tested. All binding assays were performed with ice cold buffers.
structure (smiles),measurement,setting,value
"CCCCCCCCCCC(CCCCCCCCCC)(CO[C@@H]1O[C@H](CO)[C@@H](O[C@H]2O[C@H](CO)[C@@H](O)[C@H](O)[C@H]2O)[C@H](O)[C@H]1O)CO[C@@H]1O[C@H](CO)[C@@H](O[C@H]2O[C@H](CO)[C@@H](O)[C@H](O)[C@H]2O)[C@H](O)[C@H]1O [MNG-3, reference compound]",δOR-T4L ligand binding activity after solubilization,[1],higher activity than DDM-solubilized δOR-T4L
"CCCCCCCCS[C@@H]1O[C@H](CO)[C@@H](O)[C@H](O)[C@H]1O [OTG, octyl-β-D-thioglucoside]",CMC,[2],0.28 wt %
"CCCCCCCCO[C@@H]1O[C@H](CO)[C@@H](O)[C@H](O)[C@H]1O [OG, octyl-β-D-glucoside, reference compound]",CMP-Sia-GFP extraction yield,[3],~50%
same,β2AR WT detected after extraction,β2AR WT,only a very small amount of β2AR WT was detected
CO[C@@H]1CC[C@@]2(C)[C@H](CC[C@@H]3[C@@H]2CC[C@]2(C)[C@@H]([C@H](C)CCC(=O)NC(CO[C@@H]4OC(CO)C(O[C@@H]5OC(CO)[C@@H](O)[C@H](O)C5O)[C@@H](O)C4O)CO[C@@H]4OC(CO)[C@@H](O[C@H]5OC(CO)[C@@H](O)[C@H](O)C5O)[C@H](O)C4O)CC[C@@H]32)C1 (stereo partly drawn) [GLC-1],CMC,[4],~52 µM
same,CMC (wt %),[4],~0.006 wt %
same,"Rh (nm), hydrodynamic radius of micelles",[5],3.22 ± 0.03 nm
CO[C@@H]1CC[C@@]2(C)[C@H](CC[C@@H]3[C@@H]2CC[C@]2(C)C(C(C)CCCC(CO[C@@H]4OC(CO)C(O[C@@H]5OC(CO)[C@@H](O)[C@H](O)C5O)[C@@H](O)C4O)CO[C@@H]4OC(CO)[C@@H](O[C@H]5OC(CO)[C@@H](O)[C@H](O)C5O)[C@H](O)C4O)CC[C@@H]32)C1 (stereo partly drawn) [GLC-3],CMC,[4],~7.1 µM
same,CMC (wt %),[4],~0.00077 wt %
same,"Rh (nm), hydrodynamic radius of micelles",[5],3.27 ± 0.08 nm
same,β2AR WT initial activity,"wild type β2AR (β2AR WT); extracted with 1 wt % or 2 wt % amphiphile, [3H]-dihydroalprenolol binding",initial activity similar to that of DDM
same,β2AR WT activity over 72 hours,wild type β2AR (β2AR WT); solubilized samples stored at 4° C.,activity was maintained over 72 hours
